These results are taken from patent US20240293164A1, “METHODS AND COMPOSITIONS OF CRYOABLATION WITH DRUG DELIVERY” (Theromics, Inc., priority 2023, published 2024).

The data set in a line: differential scanning calorimetry (DSC), heat flow as a function of temperature. It counts as physicochemical. As for the experimental part: This is also an exothermic event. Upon heating, the cryoablation gel melts at about −10° C.
An exothermic event begins as the sample is cooled to about −18° C.; and the phase changing event is more than 10° C. wide. This process is more than 4×more exothermic than the crystallization of cryoablation gel, showing that the water crystallization process is much more chaotic with high entropy and takes a while to reach an ordered state. On the contrary, the cryoablation gel is a more highly ordered substance and the crystallization event produces less energy due to the relatively lower entropy.

Molecules are shown by their SMILES.

As for `O` [water], where the note is “cooling”, the “temperature of phase change (exothermic event) on cooling” value was “about −18 °C” and the “width of phase changing event” value is “more than 10 °C”. Besides, the “exothermicity of crystallization relative to cryoablation gel” value (water versus cryoablation gel) is “more than 4 ×”.
